Measured values published in patent US12479827B2, “Heteroaromatic carboxamide derivatives as plasma kallikrein inhibitors” (Boehringer Ingelheim International GmbH, priority 2020, dated 2025).

Columns and labels:
[1] = molecular target: T1, PKK in kaolin activated human platelet poor plasma (Homo sapiens, UniProt P03952); experiment: Inhibition of PKK in kaolin activated human PPP; format: biochemical; details: 25-750 μg/mL kaolin, global fit, text b200 calls the values IC90;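 also: readout is the rate of fluorogenic substrate cleavage in rfu per min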
T1 construct: Platelet poor plasma (PPP) obtained from human wholeblood; from tissue
Protocol: Platelet poor plasma (PPP) obtained from human wholeblood, anticoagulated with Na-Citrate, is incubated with various concentrations of the test compound together with either 25, 75, 250, or 750 μg/mL kaolin in assay buffer for 20 min at 37° C. such that for each kaolin dose used a concentration response is obtained for the test compound.

Human PKK = molecular target: T2, Human PKK (Homo sapiens, UniProt P03952); experiment: Inhibition of PKK using an endpoint assay (human PKK); format: biochemical; details: fluorogenic substrate H-Pro-Phe-Arg-AMC, 1 h room temperature, method names human or rat PKK, table does not say which
T2 construct: purchased Enzyme Research Laboratories
Method in brief: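 Endpoint fluorescence (ex 355 nm, em 460 nm) after stopping with 1 μM final PPACK II. Buffer: Tris 100 mM pH 7.8, NaCl 150 mM, BSA 0.1%, Tween20 0.05%, with 1% DMSO present; enzyme is human plasma kallikrein.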

T2 sequence (P03952 20-390 limits assumed): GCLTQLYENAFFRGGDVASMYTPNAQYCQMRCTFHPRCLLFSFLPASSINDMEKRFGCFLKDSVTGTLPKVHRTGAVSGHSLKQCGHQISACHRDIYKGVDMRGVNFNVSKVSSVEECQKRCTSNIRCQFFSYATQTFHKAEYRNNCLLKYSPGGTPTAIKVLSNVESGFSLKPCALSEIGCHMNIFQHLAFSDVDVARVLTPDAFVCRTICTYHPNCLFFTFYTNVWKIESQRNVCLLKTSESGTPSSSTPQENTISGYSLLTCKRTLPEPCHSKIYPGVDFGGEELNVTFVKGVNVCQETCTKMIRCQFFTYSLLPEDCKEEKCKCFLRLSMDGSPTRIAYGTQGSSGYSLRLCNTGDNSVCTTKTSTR
T2 sequence (P03952 391-638 limits assumed): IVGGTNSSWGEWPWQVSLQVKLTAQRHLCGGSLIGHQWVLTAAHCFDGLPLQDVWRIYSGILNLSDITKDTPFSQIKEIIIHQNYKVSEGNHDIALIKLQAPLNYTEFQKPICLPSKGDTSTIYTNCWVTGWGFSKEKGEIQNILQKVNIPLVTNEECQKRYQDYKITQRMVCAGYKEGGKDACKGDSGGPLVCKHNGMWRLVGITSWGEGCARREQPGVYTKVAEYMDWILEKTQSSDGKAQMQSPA
T1 sequence (P03952 391-638 limits assumed): as above
T1 sequence (P03952 20-390 limits assumed): as the sequence (P03952 20-390 limits assumed) above

Row | Structure (SMILES) | IC50 [1] [µM] | IC50 (Human PKK) [µM]
1 | Cn1cnc2c1CC[C@H]2NC(=O)c1cnn(Cc2ccc(N3CC4CC4C3)c(C#N)n2)c1 (stereo partly drawn) [Example 35, 1-[(5-{3-Azabicyclo[3.1.0]hexan-3-yl}-6-cyanopyridin-2-yl)methyl]-N-[(4R)-1-methyl-1H,4H,5H,6H-cyclopenta[d]imidazol-4-yl]-1H-pyrazole-4-carboxamide] | 0.259 | 0.0022
2 | CCc1nc(N2CC3(CC3)C2)ccc1Cn1cnc(C(=O)N[C@@H]2CCc3c2ncn3C)c1 [Example 37, 1-[(6-{5-Azaspiro[2.3]hexan-5-yl}-2-ethylpyridin-3-yl)methyl]-N-[(4R)-1-methyl-1H,4H,5H,6H-cyclopenta[d]imidazol-4-yl]-1H-imidazole-4-carboxamide] | 0.125 | 0.0009
3 | Cn1cnc2c1CC[C@H]2NC(=O)c1cn(Cc2ccc(N3CC4CC4C3)nc2Br)cn1 (stereo partly drawn) [Example 39, 1-[(6-{3-Azabicyclo[3.1.0]hexan-3-yl}-2-bromopyridin-3-yl)methyl]-N-[(4R)-1-methyl-1H,4H,5H,6H-cyclopenta[d]imidazol-4-yl]-1H-imidazole-4-carboxamide] | 0.38 | 0.0007
4 | Cn1cnc2c1CC[C@H]2NC(=O)c1cnn(Cc2ccc(N3CC4CC4C3)nc2Br)c1 (stereo partly drawn) [Example 40, 1-[(6-{3-Azabicyclo[3.1.0]hexan-3-yl}-2-bromopyridin-3-yl)methyl]-N-[(4R)-1-methyl-1H,4H,5H,6H-cyclopenta[d]imidazol-4-yl]-1H-pyrazole-4-carboxamide] | 0.543 | 0.0012
5 | Cn1cnc2c1CC[C@H]2NC(=O)c1cnn(Cc2ccc(N3CC4C(C3)C4(F)F)cn2)c1 (stereo partly drawn) [Example 41, 1-[(5-{6,6-Difluoro-3-azabicyclo[3.1.0]hexan-3-yl}pyridin-2-yl)methyl]-N-[(4R)-1-methyl-1H,4H,5H,6H-cyclopenta[d]imidazol-4-yl]-1H-pyrazole-4-carboxamide] | 0.488 | 0.0034
6 | Cn1cnc2c1CC[C@H]2NC(=O)c1cnn(Cc2ccc(N3CC4CC4C3)nc2C2(C#N)CC2)c1 (stereo partly drawn) [Example 42, 1-[(6-{3-Azabicyclo[3.1.0]hexan-3-yl}-2-(1-cyanocyclopro-pyl)-pyridin-3-yl)methyl]-N-[(4R)-1-methyl-1H,4H,5H,6H-cyclopenta[d]imidazol-4-yl]-1H-pyrazole-4-carboxamide] | 0.195 | 0.0006
7 | Cn1cnc2c1CC[C@H]2NC(=O)c1cnn(Cc2ccc(N3CC4CC4C3)nc2C(F)F)c1 (stereo partly drawn) [Example 43, 1-[(6-{3-Azabicyclo[3.1.0]hexan-3-yl}-2-(difluoromethyl)-pyridin-3-yl)methyl]-N-[(4R)-1-methyl-1H,4H,5H,6H-cyclopenta[d]imidazol-4-yl]-1H-pyrazole-4-carboxamide] | 0.308 | 0.0009
8 | Cn1cnc2c1CC[C@H]2NC(=O)c1cnn(Cc2ccc(N3CC4C(C3)C4(F)F)nc2Cl)c1 (stereo partly drawn) [Example 44, 1-[(2-Chloro-6-{6,6-difluoro-3-azabicyclo-[3.1.0]hexan-3-yl}pyridin-3-yl)methyl]-N-[(4R)-1-methyl-1H,4H,5H,6H-cyclopenta[d]imidazol-4-yl]-1H-pyrazole-4-carboxamide] | 0.444 | 0.0018
9 | Cn1cnc2c1CC[C@H]2NC(=O)c1cn(Cc2ccc(N3CC4C(C3)C4(F)F)nc2C(F)F)cn1 (stereo partly drawn) [Example 45, 1-[(6-{6,6-Difluoro-3-azabicyclo[3.1.0]hexan-3-yl}-2-(difluoromethyl)pyridin-3-yl)methyl]-N-[(4R)-1-methyl-1H,4H,5H,6H-cyclopenta-[d]imidazol-4-yl]-1H-imidazole-4-carboxamide] | 0.151 | 0.0007
10 | Cn1cnc2c1CC[C@H]2NC(=O)c1cnn(Cc2ccc(N3CC4C(C3)C4(F)F)nc2C(F)F)c1 (stereo partly drawn) [Example 46, 1-[(6-{6,6-Difluoro-3-azabicyclo[3.1.0]hexan-3-yl}-2-(difluoromethyl)pyridin-3-yl)methyl]-N-[(4R)-1-methyl-1H,4H,5H,6H-cyclopenta-[d]imidazol-4-yl]-1H-pyrazole-4-carboxamide] | 0.162 | 0.001
11 | Cn1cnc2c1CC[C@H]2NC(=O)c1cnn(Cc2ccc(N3CC4CC4C3)nc2C(F)F)c1 (stereo partly drawn) [Example 48, 1-[(6-{3-Azabicyclo[3.1.0]hexan-3-yl}-2-(difluoromethyl)-pyridin-3-yl)methyl]-N-[(4R)-1-methyl-1H,4H,5H,6H-cyclopenta[d]imidazol-4-yl]-1H-pyrazole-4-carboxamide] | 0.612 | 0.0028
12 | Cn1cnc2c1CC[C@H]2NC(=O)c1cn(Cc2ccc(N3CC4C(C3)C4(F)F)nc2CO)nn1 (stereo partly drawn) [Example 50, 1-[(6-{6,6-Difluoro-3-azabicyclo[3.1.0]hexan-3-yl}-2-(hydroxymethyl)pyridin-3-yl)methyl]-N-[(4R)-1-methyl-1H,4H,5H,6H-cyclopenta[d]-imidazol-4-yl]-1H-1,2,3-triazole-4-carboxamide] | 0.11 | 0.0017
13 | Cn1cnc2c1CC[C@H]2NC(=O)c1cn(Cc2ccc(N3CC4C(C3)C4(F)F)cn2)cn1 (stereo partly drawn) [Example 53, 1-[(5-{6,6-Difluoro-3-azabicyclo[3.1.0]hexan-3-yl}pyridin-2-yl)methyl]-N-[(4R)-1-methyl-1H,4H,5H,6H-cyclopenta[d]imidazol-4-yl]-1H-imidazole-4-carboxamide] | 0.203 | 0.002
14 | Cn1cnc2c1CC[C@H]2NC(=O)c1cnn(Cc2ccc(N3CC4CC4C3)nc2CCCO)c1 (stereo partly drawn) [Example 54, 1-[(6-{3-Azabicyclo[3.1.0]hexan-3-yl}-2-(3-hydroxypropyl)-pyridin-3-yl)methyl]-N-[(4R)-1-methyl-1H,4H,5H,6H-cyclopenta[d]imidazol-4-yl]-1H-pyrazole-4-carboxamide] | 0.109 | 0.0007
15 | COCc1nc(N2CC3C(C2)C3(F)F)ccc1Cn1cc(C(=O)N[C@@H]2CCc3c2ncn3C)nn1 (stereo partly drawn) [Example 55, 1-[(6-{6,6-Difluoro-3-azabicyclo[3.1.0]hexan-3-yl}-2-(methoxymethyl)pyridin-3-yl)methyl]-N-[(4R)-1-methyl-1H,4H,5H,6H-cyclopenta[d]-imidazol-4-yl]-1H-1,2,3-triazole-4-carboxamide] | 0.25 | 0.0023
16 | Cn1cnc2c1CC[C@H]2NC(=O)c1cnn(Cc2ccc(N3CC4(CC4)C3)nc2Cl)c1 [Example 56, 1-[(6-{5-Azaspiro[2.3]hexan-5-yl}-2-chloropyridin-3-yl)methyl]-N-[(4R)-1-methyl-1H,4H,5H,6H-cyclopenta[d]imidazol-4-yl]-1H-pyrazole-4-carboxamide] | 0.586 | 0.0018
17 | Cn1cnc2c1CC[C@H]2NC(=O)c1cn(Cc2ccc(N3CC4C(C3)C4(F)F)nc2Cl)cn1 (stereo partly drawn) [Example 57, 1-[(2-Chloro-6-{6,6-difluoro-3-azabicyclo[3.1.0]-hexan-3-yl}pyridin-3-yl)methyl]-N-[(4R)-1-methyl-1H,4H,5H,6H-cyclopenta[d]imidazol-4-yl]-1H-imidazole-4-carboxamide] | 0.166 | 0.0006
18 | Cn1cnc2c1CC[C@H]2NC(=O)c1cnn(Cc2cnc(N3CC4CC4C3)nc2CO)c1 (stereo partly drawn) [Example 62, 1-[(2-{3-Azabicyclo[3.1.0]hexan-3-yl}-4-(hydroxymethyl)-pyrimidin-5-yl)methyl]-N-[(4R)-1-methyl-1H,4H,5H,6H-cyclopenta[d]imidazol-4-yl]-1H-pyrazole-4-carboxamide] | 0.769 | 0.014
